Data taken from patent publication US12077503B2, “Substituted cyclic amides and their use as herbicides” (FMC CORPORATION, priority 2015, dated 2024).

Legend:
Assay type in all cases: in vivo
[1] = system: redroot pigweed (Amaranthus retroflexus); assay: Test G Pre-Emergence Protocol; details: Amaranthus retroflexus, pre-emergence, 312 h, evaluated after 13 days; for pest or weed control at 15.625 g/ha: 15.625 g ai/ha; for pest or weed control at 15.625 g/ha / pest or weed control at 250 g/ha: read-out: Pigweed, Redroot damage rating (100=total damage to plant; 0=no damage to plant); for pest or weed control at 62.5 g/ha: 62.5 g ai/ha, 100=total damage to plant, 0=no damage to plant, read-out: plant damage rating, Pigweed, Redroot; for pest or weed control at 250 g/ha: 250 g ai/ha
Procedure, shortened: (§1)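 Under a 24/16° C day/night regime with 14 h light and 65% humidity, sown pots were sprayed after one day with compound (15.625, 62.5 or 250 g/ha; 50:50 acetone/water, 0.5% Tween 20). Damage was assessed visually 13 days later, 0 to 100.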

[2] = system: barnyardgrass (Echinochloa crus-galli); assay: Test G Pre-Emergence Protocol; details: Echinochloa crus-galli, pre-emergence, 312 h, evaluated after 13 days; for pest or weed control at 15.625 g/ha: 15.625 g ai/ha, read-out: Barnyard grass damage rating (100=total damage to plant; 0=no damage to plant); for pest or weed control at 62.5 g/ha: 62.5 g ai/ha, 100=total damage to plant, 0=no damage to plant, read-out: plant damage rating, Barnyardgrass; for pest or weed control at 250 g/ha: 250 g ai/ha, read-out: Barnyardgrass damage rating (100=total damage to plant; 0=no damage to plant)
Procedure, shortened: as §1

[3] = system: ivy-leaved morning glory (Ipomoea hederacea); assay: Test G Pre-Emergence Protocol; details: Ipomoea, pre-emergence, 312 h, evaluated after 13 days; for pest or weed control at 15.625 g/ha: 15.625 g ai/ha, read-out: Morning-glory, Ivy-leaved damage rating (100=total damage to plant; 0=no damage to plant); for pest or weed control at 250 g/ha: 250 g ai/ha, read-out: Morningglory, Ivy-leaved damage rating (100=total damage to plant; 0=no damage to plant); for pest or weed control at 62.5 g/ha: 62.5 g ai/ha, 100=total damage to plant, 0=no damage to plant, read-out: plant damage rating, Morningglory, Ivy-leaved
Procedure, shortened: as §1

[4] = system: velvetleaf (Abutilon theophrasti); assay: Test G Pre-Emergence Protocol; details: Abutilon theophrasti, pre-emergence, 312 h, evaluated after 13 days; for pest or weed control at 15.625 g/ha: 15.625 g ai/ha; for pest or weed control at 15.625 g/ha / pest or weed control at 250 g/ha: read-out: Velvetleaf damage rating (100=total damage to plant; 0=no damage to plant); for pest or weed control at 62.5 g/ha: 62.5 g ai/ha, 100=total damage to plant, 0=no damage to plant, read-out: plant damage rating, Velvetleaf; for pest or weed control at 250 g/ha: 250 g ai/ha
Procedure, shortened: as §1

[5] = system: giant foxtail (Setaria faberi); assay: Test G Pre-Emergence Protocol; details: Setaria faberi, pre-emergence, 312 h, evaluated after 13 days; for pest or weed control at 15.625 g/ha: 15.625 g ai/ha; for pest or weed control at 15.625 g/ha / pest or weed control at 250 g/ha: read-out: Foxtail, Giant damage rating (100=total damage to plant; 0=no damage to plant); for pest or weed control at 62.5 g/ha: 62.5 g ai/ha, 100=total damage to plant, 0=no damage to plant, read-out: plant damage rating, Foxtail, Giant; for pest or weed control at 250 g/ha: 250 g ai/ha
Procedure, shortened: as §1

corn (Zea mays) = assay: Test G Pre-Emergence Protocol; details: Zea mays, pre-emergence, 312 h, evaluated after 13 days; for plant injury at 15.625 g/ha: 15.625 g ai/ha; for plant injury at 15.625 g/ha / plant injury at 250 g/ha: read-out: Corn damage rating (100=total damage to plant; 0=no damage to plant); for plant injury at 62.5 g/ha: 62.5 g ai/ha, 100=total damage to plant, 0=no damage to plant, read-out: plant damage rating, Corn; for plant injury at 250 g/ha: 250 g ai/ha
Procedure, shortened: as §1

[6] = system: wheat (Triticum aestivum); assay: Test A postemergence; details: Triticum aestivum, post-emergence, 240 h, Postemergence, read-out: Plant response rating, Wheat
Procedure, shortened: (§2)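 Compounds were formulated in a non-phytotoxic solvent mixture with surfactant and applied as a preemergence directed soil spray after seeding, or sprayed postemergence over plants 2 to 10 cm tall at the one- to two-leaf stage. Evaluation after about 10 d compared treated with untreated controls, using a scale from 0 (no effect) to 100 (complete control).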

[7] = system: barnyardgrass (Echinochloa crus-galli); assay: Test A postemergence; details: Echinochloa crus-galli, post-emergence, 240 h, Postemergence, read-out: Plant response rating, Barnyardgrass
Procedure, shortened: as §2

[8] = system: giant foxtail (Setaria faberii); assay: Test A postemergence; details: Setaria faberi, post-emergence, 240 h, Postemergence, read-out: Plant response rating, Foxtail, Giant
Procedure, shortened: as §2

[9] = system: ryegrass, Italian (Italian ryegrass, Lolium multiflorum); assay: Test A postemergence; details: Lolium multiflorum, post-emergence, 240 h, Postemergence, read-out: Plant response rating, Ryegrass, Italian
Procedure, shortened: as §2

[10] = system: blackgrass (Alopecurus myosuroides); assay: Test A postemergence; details: Alopecurus myosuroides, post-emergence, 240 h, Postemergence, read-out: Plant response rating, Blackgrass
Procedure, shortened: as §2

[11] = system: ragweed (common ragweed, Ambrosia elatior); assay: Test A postemergence; details: Ambrosia artemisiifolia, post-emergence, 240 h, Postemergence, read-out: Plant response rating, Ragweed
Procedure, shortened: as §2

[12] = 125 g ai/ha, visual injury after approx. 10 d, 0 to 100 scale, 0 no effect, 100 complete control
[13] = 500 g ai/ha, visual injury, 0 to 100 scale (0 no effect, 100 complete control), approx. 10 d

## CN1C[C@H](c2ccc3occc3c2)[C@@H](C(=O)Nc2cccc(F)c2F)C1=O (racemic) [Compound 1500]
[1]
  pest or weed control at 15.625 g/ha: 0%
  pest or weed control at 62.5 g/ha: 0%
  pest or weed control at 250 g/ha: 80%
[2]
  pest or weed control at 15.625 g/ha: 30%
  pest or weed control at 62.5 g/ha: 90%
  pest or weed control at 250 g/ha: 90%
[3]
  pest or weed control at 15.625 g/ha: 0%
  pest or weed control at 250 g/ha: 20%
[4]
  pest or weed control at 15.625 g/ha: 0%
  pest or weed control at 62.5 g/ha: 0%
  pest or weed control at 250 g/ha: 20%
[5]
  pest or weed control at 15.625 g/ha: 60%
  pest or weed control at 62.5 g/ha: 80%
  pest or weed control at 250 g/ha: 80%
Corn (Zea mays)
  plant injury at 15.625 g/ha: 0%
  plant injury at 62.5 g/ha: 0%
  plant injury at 250 g/ha: 30%

## CN1C[C@@H](c2ccc(C(F)(F)F)cc2)[C@H](C(=O)Nc2cc[nH]n2)C1=O (racemic) [Compound 1533]
[1]
  pest or weed control at 15.625 g/ha: 0%
  pest or weed control at 62.5 g/ha: 0%
  pest or weed control at 250 g/ha: 0%
[2]
  pest or weed control at 15.625 g/ha: 0%
  pest or weed control at 62.5 g/ha: 0%
  pest or weed control at 250 g/ha: 0%
[3]
  pest or weed control at 15.625 g/ha: 0%
  pest or weed control at 62.5 g/ha: 0%
  pest or weed control at 250 g/ha: 0%
[4]
  pest or weed control at 15.625 g/ha: 0%
  pest or weed control at 62.5 g/ha: 0%
  pest or weed control at 250 g/ha: 0%
[5]
  pest or weed control at 62.5 g/ha: 0%
  pest or weed control at 250 g/ha: 0%
Corn (Zea mays)
  plant injury at 15.625 g/ha: 0%
  plant injury at 62.5 g/ha: 0%
  plant injury at 250 g/ha: 0%

## Cc1ccncc1NC(=O)[C@@H]1C(=O)N(C)C[C@H]1c1ccc(C(F)(F)F)cc1 (racemic) [Compound 1505]
[1]
  pest or weed control at 15.625 g/ha: 0%
  pest or weed control at 62.5 g/ha: 0%
  pest or weed control at 250 g/ha: 0%
[2]
  pest or weed control at 15.625 g/ha: 0%
  pest or weed control at 62.5 g/ha: 0%
  pest or weed control at 250 g/ha: 20%
[3]
  pest or weed control at 15.625 g/ha: 0%
  pest or weed control at 250 g/ha: 0%
[4]
  pest or weed control at 15.625 g/ha: 0%
  pest or weed control at 62.5 g/ha: 0%
  pest or weed control at 250 g/ha: 0%
[5]
  pest or weed control at 15.625 g/ha: 0%
  pest or weed control at 62.5 g/ha: 10%
  pest or weed control at 250 g/ha: 30%
Corn (Zea mays)
  plant injury at 15.625 g/ha: 0%
  plant injury at 62.5 g/ha: 0%
  plant injury at 250 g/ha: 0%

## CN1C[C@@H](c2ccc(C(F)(F)F)cc2)[C@H](C(=O)Nc2ccno2)C1=O (racemic) [Compound 1513]
[1]
  pest or weed control at 15.625 g/ha: 0%
  pest or weed control at 62.5 g/ha: 0%
  pest or weed control at 250 g/ha: 0%
[2]
  pest or weed control at 15.625 g/ha: 0%
  pest or weed control at 62.5 g/ha: 0%
  pest or weed control at 250 g/ha: 0%
[3]
  pest or weed control at 15.625 g/ha: 0%
  pest or weed control at 62.5 g/ha: 0%
  pest or weed control at 250 g/ha: 0%
[4]
  pest or weed control at 15.625 g/ha: 0%
  pest or weed control at 62.5 g/ha: 0%
  pest or weed control at 250 g/ha: 0%
[5]
  pest or weed control at 15.625 g/ha: 0%
  pest or weed control at 62.5 g/ha: 0%
  pest or weed control at 250 g/ha: 0%
Corn (Zea mays)
  plant injury at 15.625 g/ha: 0%
  plant injury at 62.5 g/ha: 0%
  plant injury at 250 g/ha: 0%

## Cc1cc(NC(=O)[C@@H]2C(=O)N(C)C[C@H]2c2ccc(C(F)(F)F)cc2)n[nH]1 (racemic) [Compound 1532]
[1]
  pest or weed control at 15.625 g/ha: 0%
  pest or weed control at 62.5 g/ha: 0%
  pest or weed control at 250 g/ha: 0%
[2]
  pest or weed control at 15.625 g/ha: 0%
  pest or weed control at 62.5 g/ha: 30%
  pest or weed control at 250 g/ha: 0%
[3]
  pest or weed control at 15.625 g/ha: 0%
  pest or weed control at 62.5 g/ha: 0%
  pest or weed control at 250 g/ha: 0%
[4]
  pest or weed control at 15.625 g/ha: 0%
  pest or weed control at 62.5 g/ha: 0%
  pest or weed control at 250 g/ha: 0%
[5]
  pest or weed control at 15.625 g/ha: 100%
  pest or weed control at 62.5 g/ha: 100%
  pest or weed control at 250 g/ha: 0%
Corn (Zea mays)
  plant injury at 15.625 g/ha: 0%
  plant injury at 62.5 g/ha: 0%
  plant injury at 250 g/ha: 0%

## CSc1ccccc1NC(=O)[C@H]1C(=O)N(C)C[C@@H]1c1ccc(C(F)(F)F)cc1 [Compound 1391]
[6]; [12]
  plant injury at 125 g/ha: 30%
[6]; [13]
  plant injury at 500 g/ha: 60%
[7]; [12]
  pest or weed control at 125 g/ha: 90%
[7]; [13]
  pest or weed control at 500 g/ha: 100%
[8]; [12]
  pest or weed control at 125 g/ha: 90%
[8]; [13]
  pest or weed control at 500 g/ha: 90%
[9]; [12]
  pest or weed control at 125 g/ha: 40%
[9]; [13]
  pest or weed control at 500 g/ha: 60%
[10]; [12]
  pest or weed control at 125 g/ha: 40%
[10]; [13]
  pest or weed control at 500 g/ha: 70%
[11]; [12]
  pest or weed control at 125 g/ha: 20%
[11]; [13]
  pest or weed control at 500 g/ha: 60%
